Experimental data taken from US9290478B2, “Substituted quinoxalines as FGFR kinase inhibitors” (ASTEX THERAPEUTICS LTD, priority 2010, dated 2016).

Key:
[1] = biological target: T1, Ba/F3-KDR-transfected cells (Homo sapiens, UniProt P35968); experiment: Ba/F3-KDR (minus IL3 or plus IL3) cellular proliferation assay; assay type: cell-based; details: minus IL3
T1 construct: BAF3-KDR (MIN IL3) pIC50; other: minus IL3
Protocol: (§1) Ba/F3-KDR (Minus IL3 or Plus IL3) (Cellular Proliferation Assay)
(§2) In a 384 well plate, 100 nI of compound dilution in DMSO was sprayed before adding 50 μl cell culture medium (phenol red free RPMI-1640, 10% FBS, 2 mM L-Glutamine and 50 μg/ml Gentamycin) containing 20000 cells per well of Ba/F3-KDR-transfected cells. Cells were put in an incubator at 37° C. and 5% CO2. After 24 hours, 10 μl of Alamar Blue solution (0.5 mM K3Fe(CN)6, 0.5 mM K4Fe(CN)6, 0.15 mM Resazurin and 100 mM Phosphate Buffer) was added to the wells, incubated for 4 hours at 37° C. and 5% CO2 before RFU's (Relative Fluorescence Units) (ex. 540 nm., em. 590 nm.) were measured in a fluororescence plate reader.
(§3) In this assay, the inhibitory effect of different compound concentrations (range 10 μM to 0.1 nM) was determined and used to calculate an IC50 (M) and pIC50 (−log IC50) value. As a counterscreen the same experiment was performed in the presence of 10 ng/ml murine IL3.

[2] = tested on: Ba/F3-KDR-transfected cells; experiment: as above; assay type: cell-based; details: plus 10 ng/ml murine IL3 (counterscreen); for IC50: 24 h, read-out: BAF3-KDR (PLUS IL3) pIC50 (converted)
Protocol: as §1, §2, §3

VEGFR2 = biological target: T2, VEGFR2 (Homo sapiens, UniProt P35968); experiment: Biological Assays B: VEGFR2 in vitro kinase inhibitory activity assay; assay type: biochemical; details: 0.5 μM ATP, read-out: VEGFR2 pIC50 (converted)
T2 construct: purchased Upstate
T2 sequence (P35968 20-1356): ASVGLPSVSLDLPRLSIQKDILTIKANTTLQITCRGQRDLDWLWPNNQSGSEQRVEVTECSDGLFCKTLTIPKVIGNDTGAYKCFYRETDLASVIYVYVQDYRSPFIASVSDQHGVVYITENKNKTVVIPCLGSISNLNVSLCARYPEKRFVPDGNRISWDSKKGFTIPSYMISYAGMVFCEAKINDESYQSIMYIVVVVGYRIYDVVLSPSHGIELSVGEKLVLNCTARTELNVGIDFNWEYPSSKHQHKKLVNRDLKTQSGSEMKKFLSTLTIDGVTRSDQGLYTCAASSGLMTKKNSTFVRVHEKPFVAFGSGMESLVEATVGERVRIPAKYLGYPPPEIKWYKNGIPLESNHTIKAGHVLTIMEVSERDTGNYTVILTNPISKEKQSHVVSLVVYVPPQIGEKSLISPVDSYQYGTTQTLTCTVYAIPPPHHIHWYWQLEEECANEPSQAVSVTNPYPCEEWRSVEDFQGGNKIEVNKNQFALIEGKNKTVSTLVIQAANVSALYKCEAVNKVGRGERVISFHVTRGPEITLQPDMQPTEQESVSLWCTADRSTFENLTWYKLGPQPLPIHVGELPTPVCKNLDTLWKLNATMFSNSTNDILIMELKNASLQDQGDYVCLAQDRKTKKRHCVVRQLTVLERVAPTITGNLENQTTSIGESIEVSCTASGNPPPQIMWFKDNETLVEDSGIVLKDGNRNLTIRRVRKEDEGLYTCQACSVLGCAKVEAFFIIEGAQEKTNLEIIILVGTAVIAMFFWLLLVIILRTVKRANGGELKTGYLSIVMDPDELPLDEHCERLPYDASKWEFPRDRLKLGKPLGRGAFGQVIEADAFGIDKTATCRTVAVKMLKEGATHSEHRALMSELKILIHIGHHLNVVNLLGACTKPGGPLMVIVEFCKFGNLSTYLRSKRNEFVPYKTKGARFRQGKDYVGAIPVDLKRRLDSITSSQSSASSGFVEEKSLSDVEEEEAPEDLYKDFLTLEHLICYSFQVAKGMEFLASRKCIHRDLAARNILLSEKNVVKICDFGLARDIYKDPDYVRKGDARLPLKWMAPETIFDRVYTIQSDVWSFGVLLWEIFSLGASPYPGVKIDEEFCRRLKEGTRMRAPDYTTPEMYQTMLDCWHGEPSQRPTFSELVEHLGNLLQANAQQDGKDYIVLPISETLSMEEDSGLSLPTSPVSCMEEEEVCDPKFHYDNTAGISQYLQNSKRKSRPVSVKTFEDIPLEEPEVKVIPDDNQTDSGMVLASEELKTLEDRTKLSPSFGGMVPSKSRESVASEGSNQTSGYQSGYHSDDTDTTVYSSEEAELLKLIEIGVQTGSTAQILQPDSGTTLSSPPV
Protocol: (§4) Biological Assays B FGFR3, VEGFR2 and PDGFR In Vitro Kinase Inhibitory Activity Assays
(§5) Enzymes (from Upstate), prepared at 2× final concentration, were incubated with test compounds, biotinylated Fit3 substrate (biotin-VASSDNEYFYVDF) (Cell Signalling Technology Inc.) and ATP in the appropriate assay buffer (Table 1). The reaction was allowed to proceed for 3 hours (FGFR3), 1 hour (VEGFR2, PDGFR-beta) at room temperature on a plate shaker at 700 rpm before being stopped with 35 mM EDTA, pH 8 (FGFR3, VEGFR2) or 55 mM EDTA, pH 8 (PDGFR-beta). 5× detection mix (50 mM HEPES pH 7.5, 0.1% BSA, 11.34 nM Eu-anti-pY (PY20) (PerkinElmer) 74 nM SA-XL665 (Cisbio) for FGFR3, 50 mM HEPES, pH 7.5, 0.1% BSA, 11.34 nM Eu-anti-pY (PY20), 187.5 nM SA-XL665 for VEGFR2 and 50 mM HEPES, pH 7.5, 0.1% BSA, 11.34 nM Eu-anti-pY (PT66) (PerkinElmer), 375 nM SA-XL665 (Cisbio) for PDGFR-beta) was then added to each well and the plate sealed and incubated at room temperature for one hour on a plate shaker at 700 rpm. The plate was then read on a Packard Fusion plate reader or a BMG Pherastar both in TRF mode.

Ba/F3-TEL-FGFR3 cells = biological target: T3, Ba/F3-TEL-FGFR3 cells (Homo sapiens, UniProt P22607); experiment: Ba/F3-TEL-FGFR3 cell proliferation assay; assay type: cell-based; details: 72 hours
T3 construct: fused on or other part: P41212 (Transcription factor ETV6)
T3 sequence (P22607 whole entry, change not shown, the tested form may be a part): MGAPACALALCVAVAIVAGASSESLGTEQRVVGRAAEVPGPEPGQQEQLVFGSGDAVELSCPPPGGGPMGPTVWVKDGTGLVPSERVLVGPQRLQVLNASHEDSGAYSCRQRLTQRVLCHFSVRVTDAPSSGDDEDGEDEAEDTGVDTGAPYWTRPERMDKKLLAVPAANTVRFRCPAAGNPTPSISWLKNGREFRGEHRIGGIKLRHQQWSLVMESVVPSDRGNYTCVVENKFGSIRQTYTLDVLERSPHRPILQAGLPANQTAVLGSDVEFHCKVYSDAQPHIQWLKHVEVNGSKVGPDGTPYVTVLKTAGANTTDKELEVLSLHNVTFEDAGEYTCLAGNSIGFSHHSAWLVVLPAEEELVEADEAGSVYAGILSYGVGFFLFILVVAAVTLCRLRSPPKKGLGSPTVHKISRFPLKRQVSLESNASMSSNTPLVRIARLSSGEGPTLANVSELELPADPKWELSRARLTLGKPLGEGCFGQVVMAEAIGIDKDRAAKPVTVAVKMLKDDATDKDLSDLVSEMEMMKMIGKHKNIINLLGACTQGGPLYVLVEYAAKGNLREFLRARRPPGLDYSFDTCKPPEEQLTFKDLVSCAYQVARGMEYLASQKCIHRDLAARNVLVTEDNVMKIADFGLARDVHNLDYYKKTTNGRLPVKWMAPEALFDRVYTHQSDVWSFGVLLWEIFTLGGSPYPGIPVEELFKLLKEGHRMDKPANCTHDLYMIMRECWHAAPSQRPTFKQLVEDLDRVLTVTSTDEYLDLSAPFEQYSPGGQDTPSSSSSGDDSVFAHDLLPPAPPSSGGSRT
Protocol: (§6) Ba/F3-TEL-FGFR3 & Ba/F3 (WT) Cell Proliferation Assays
(§7) Stably transfected Ba/F3-TEL-FGFR3 cells were plated out into black 96-well tissue culture plates with clear bottoms in RPMI medium containing 10% FBS and 0.25 mg/ml G418 at a density of 5×10^3 cells/well (200 μl per well). The parental wild-type Ba/F3 cells (DSMZ no.: ACC 300) were plated out into black 96-well tissue culture plates with clear bottoms in RPMI medium containing 10% FBS and 2 ng/ml mouse IL-3 (R&D Sysems) at a density of 2.5×10^3 cells/well (200 μl per well). Plates were placed in an incubator overnight before adding the compounds the following day. Dilutions of compounds were made in DMSO starting at 10 mM and were diluted into the wells to give a final DMSO concentration of 0.1% in assay. Compounds were left on the cells for 72 hours before the plates were removed from the incubator and 20 μl of Alamar Blue™ (Biosource) was added to each well. Plates were placed in the incubator for 4-6 hours before reading plates at 535 nm (excitation)/590 nm (emission) on a Fusion plate reader (Packard). Where inhibition is high an IC50 can be determined.

FGFR3 = biological target: T4, FGFR3 (Homo sapiens, UniProt P22607); experiment: Biological Assays B: FGFR3 in vitro kinase inhibitory activity assay; assay type: biochemical; details: 8 μM ATP, read-out: FGFR3 pIC50 (converted)
T4 construct: purchased Upstate
T4 sequence (P22607 23-806): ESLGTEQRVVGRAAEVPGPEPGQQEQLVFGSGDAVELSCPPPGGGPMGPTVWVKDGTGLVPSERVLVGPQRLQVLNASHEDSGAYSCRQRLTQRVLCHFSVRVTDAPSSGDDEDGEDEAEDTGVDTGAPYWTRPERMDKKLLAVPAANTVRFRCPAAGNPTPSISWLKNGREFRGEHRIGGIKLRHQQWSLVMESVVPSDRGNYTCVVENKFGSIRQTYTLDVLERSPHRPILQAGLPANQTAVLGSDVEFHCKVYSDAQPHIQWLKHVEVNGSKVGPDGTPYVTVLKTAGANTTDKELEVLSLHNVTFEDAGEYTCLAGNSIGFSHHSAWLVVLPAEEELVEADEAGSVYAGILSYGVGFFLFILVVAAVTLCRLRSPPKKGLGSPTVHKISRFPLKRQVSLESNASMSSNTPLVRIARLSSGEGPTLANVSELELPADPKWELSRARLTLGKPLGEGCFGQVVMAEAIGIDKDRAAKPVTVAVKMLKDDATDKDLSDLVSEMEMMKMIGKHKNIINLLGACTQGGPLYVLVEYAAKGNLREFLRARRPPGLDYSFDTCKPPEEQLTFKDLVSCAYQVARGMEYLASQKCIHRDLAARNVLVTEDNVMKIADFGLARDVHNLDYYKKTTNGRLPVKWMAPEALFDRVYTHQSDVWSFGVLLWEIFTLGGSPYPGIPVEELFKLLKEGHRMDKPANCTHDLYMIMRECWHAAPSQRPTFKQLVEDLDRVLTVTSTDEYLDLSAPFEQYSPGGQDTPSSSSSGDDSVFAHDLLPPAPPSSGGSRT
Protocol: as §4, §5

[3] = tested on: parental wild-type Ba/F3 cells; experiment: Ba/F3 (WT) cell proliferation assay; assay type: cell-based; details: BaF3; 72 hours, 2 ng/ml mouse IL-3; read-out: BAF3_WT pIC50 (converted)
Protocol: as §6, §7

T1 sequence (P35968 whole entry, change not shown): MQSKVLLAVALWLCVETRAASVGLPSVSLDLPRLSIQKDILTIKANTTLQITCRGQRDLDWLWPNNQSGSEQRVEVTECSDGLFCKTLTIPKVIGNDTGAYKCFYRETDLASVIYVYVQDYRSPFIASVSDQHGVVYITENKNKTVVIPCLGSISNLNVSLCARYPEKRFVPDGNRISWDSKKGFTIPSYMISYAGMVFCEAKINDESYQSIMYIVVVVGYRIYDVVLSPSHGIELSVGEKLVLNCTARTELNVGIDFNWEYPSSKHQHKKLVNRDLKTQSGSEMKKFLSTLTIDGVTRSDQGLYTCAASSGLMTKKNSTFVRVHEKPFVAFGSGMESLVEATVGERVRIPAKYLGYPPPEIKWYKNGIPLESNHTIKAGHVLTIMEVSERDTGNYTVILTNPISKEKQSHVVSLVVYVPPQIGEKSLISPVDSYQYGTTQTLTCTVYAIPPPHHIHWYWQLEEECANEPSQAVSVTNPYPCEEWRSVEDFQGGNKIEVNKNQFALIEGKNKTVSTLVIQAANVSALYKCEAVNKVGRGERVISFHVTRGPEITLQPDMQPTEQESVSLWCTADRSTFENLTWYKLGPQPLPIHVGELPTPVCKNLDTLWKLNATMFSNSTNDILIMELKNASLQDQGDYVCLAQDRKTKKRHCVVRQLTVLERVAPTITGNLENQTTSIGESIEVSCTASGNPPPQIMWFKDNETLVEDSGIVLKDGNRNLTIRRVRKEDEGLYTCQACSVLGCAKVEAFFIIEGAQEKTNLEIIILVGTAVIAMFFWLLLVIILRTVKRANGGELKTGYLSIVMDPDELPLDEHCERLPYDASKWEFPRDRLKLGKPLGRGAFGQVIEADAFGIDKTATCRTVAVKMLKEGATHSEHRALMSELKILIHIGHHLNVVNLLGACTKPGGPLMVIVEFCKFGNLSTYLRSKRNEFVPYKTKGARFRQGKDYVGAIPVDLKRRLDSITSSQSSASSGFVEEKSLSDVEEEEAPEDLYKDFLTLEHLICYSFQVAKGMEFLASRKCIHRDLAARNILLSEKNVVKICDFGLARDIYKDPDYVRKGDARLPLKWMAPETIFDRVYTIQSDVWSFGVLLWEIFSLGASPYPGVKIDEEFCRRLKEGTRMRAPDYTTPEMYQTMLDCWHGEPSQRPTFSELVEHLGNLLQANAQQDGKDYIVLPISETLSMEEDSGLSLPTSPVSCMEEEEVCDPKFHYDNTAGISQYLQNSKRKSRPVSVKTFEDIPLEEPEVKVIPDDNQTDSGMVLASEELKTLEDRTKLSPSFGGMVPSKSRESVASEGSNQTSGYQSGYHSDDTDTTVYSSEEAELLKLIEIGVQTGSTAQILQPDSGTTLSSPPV

SMILES | BAF3-KDR (MIN IL3) pIC50 [1] | IC50 [2] | BAF3-KDR (PLUS IL3) pIC50 [2] | melting point | IC50 (VEGFR2) | BAF3_TEL_FGFR3 pIC50 (Ba/F3-TEL-FGFR3 cells) | IC50 (FGFR3) | IC50 [3]
COc1cc(OC)cc(C(O)(CNCCNC(C)C)c2ccc3ncc(-c4cnn(C)c4)nc3c2)c1 (single isomer, unassigned) [Compound 5] | <5 | > 10 µM |  |  |  |  |  | 
COc1cc(OC)cc(C(O)(CNCCNC(C)C)c2ccc3ncc(-c4cnn(C)c4)nc3c2)c1 (single isomer, unassigned) [Compound 6] | <5 |  |  |  |  |  |  | 
COc1cc(OC)cc(C(CCNC(C)C)c2ccc3ncc(-c4cnn(C)c4)nc3c2)c1 (single isomer, unassigned) [Compound 19a] | <5 | > 10 µM |  |  |  |  |  | 
COc1cc(OC)cc(C(NCCNC(C)C)c2ccc3ncc(-c4cnn(C)c4)nc3c2)c1.Cl (single isomer, unassigned) [Compound 24] | <5 | > 10 µM |  |  |  |  |  | 
COc1cc(OC)cc(C(CCNC(C)C)c2ccc3ncc(-c4cnn(C)c4)nc3c2)c1 (single isomer, unassigned) [Compound 32a] | <5 |  | <5 |  |  |  |  | 
CNCC(O)(c1cc(OC)cc(OC)c1)c1ccc2ncc(-c3cnn(C)c3)nc2c1.Cl (single isomer, unassigned) [Compound 37] | <5 | > 10 µM |  | 174 °C |  |  |  | 
CNCC(O)(c1cc(OC)cc(OC)c1)c1ccc2ncc(-c3cnn(C)c3)nc2c1.Cl (single isomer, unassigned) [Compound 38] | <5 |  | <5 | 169 °C |  |  |  | 
COc1cc(OC)cc(C(NCCNC(C)C)c2ccc3ncc(-c4cnn(C)c4)nc3c2)c1.Cl (single isomer, unassigned) [Compound 39] | <5 |  | <5 |  |  |  |  | 
COc1cc(OC)cc(C(=O)c2ccc3ncc(-c4cnn(C)c4)nc3c2)c1 [Compound 2] | <5 | > 10 µM |  | 162 °C |  |  |  | 
COc1cc(OC)cc(/C(=C/C#N)c2ccc3ncc(-c4cnn(C)c4)nc3c2)c1 [Compound 3] | <5 | > 10 µM |  | 223 °C |  |  |  | 
COc1cc(OC)cc(/C(=C\C#N)c2ccc3ncc(-c4cnn(C)c4)nc3c2)c1 [Compound 4] | <5 | > 10 µM |  | 204 °C |  |  |  | 
COc1cc(OC)cc(C(CCN2CCCC2=O)c2ccc3ncc(-c4cnn(C)c4)nc3c2)c1.Cl (stereo not shown) [Compound 7] | 5.13 | > 10 µM |  |  |  |  |  | 
COc1cc(OC)cc(/C(=C\CNC(C)C)c2ccc3ncc(-c4cnn(C)c4)nc3c2)c1 [Compound 8, {(Z)-3-(3,5-Dimethoxy-phenyl)-3-[3-(1-methyl-1H-pyrazol-4-yl)-quinoxalin-6-yl]-allyl}-isopropyl-amine] | 5.18 | > 10 µM |  | 164 °C |  |  |  | 
COc1cc(OC)cc(/C(=C/CNC(C)C)c2ccc3ncc(-c4cnn(C)c4)nc3c2)c1 [Compound 9] | <5 | > 10 µM |  |  |  |  |  | 
COc1cc(OC)cc(/C(=C\CN(C)C)c2ccc3ncc(-c4cnn(C)c4)nc3c2)c1 [Compound 10, {(Z)-3-(3,5-Dimethoxy-phenyl)-3-[3-(1-methyl-1H-pyrazol-4-yl)-quinoxalin-6-yl]-allyl}-dimethyl-amine] | <5 | > 10 µM |  | 164 °C |  |  |  | 
COc1cc(OC)cc(/C(=C\CNCC(F)(F)F)c2ccc3ncc(-c4cnn(C)c4)nc3c2)c1 [Compound 14, {(Z)-3-(3,5-Dimethoxy-phenyl)-3-[3-(1-methyl-1H-pyrazol-4-yl)-quinoxalin-6-yl]-allyl}-(2,2,2-trifluoro-ethyl)-amine] | <5 | > 10 µM |  |  |  |  |  | 
COc1cc(OC)cc(C(CC#N)c2ccc3ncc(-c4cnn(C)c4)nc3c2)c1 (stereo not shown) [Compound 18] | <5 | > 10 µM |  |  | 6.31 µM |  |  | 
COc1cc(OC)cc(C(CCN)c2ccc3ncc(-c4cnn(C)c4)nc3c2)c1.Cl (stereo not shown) [Compound 20] | <5 | > 10 µM |  | 211 °C | 3.16 µM |  |  | 
COc1cc(OC)cc(C(CCN(C)C)c2ccc3ncc(-c4cnn(C)c4)nc3c2)c1.Cl (stereo not shown) [Compound 21] | <5 | > 10 µM |  |  |  |  |  | 
COc1cc(OC)cc(C(CCO)c2ccc3ncc(-c4cnn(C)c4)nc3c2)c1 (stereo not shown) [Compound 22] | <5 | > 10 µM |  | 114 °C | 3.98 µM | 6.85 |  | 
COc1cc(OC)cc(C(CC(=O)NC(C)C)c2ccc3ncc(-c4cnn(C)c4)nc3c2)c1 (stereo not shown) [Compound 23] | <5 | > 10 µM |  | 186 °C |  |  |  | 
COc1cc(OC)cc(C(CC(C)(O)CNC(C)C)c2ccc3ncc(-c4cnn(C)c4)nc3c2)c1.Cl (stereo not shown) [Compound 25] | <5 | > 10 µM |  |  |  |  |  | 
Cn1cc(-c2cnc3ccc(C(O)c4ccccc4)cc3n2)cn1 (stereo not shown) [Compound 28] | <5 | > 10 µM |  |  |  |  |  | 
COc1cc(OC)cc(C(CCNC(C)C)c2ccc3ncc(-c4cnn(C)c4)nc3c2)c1.Cl (stereo not shown) [Compound 29, {3-(3,5-Dimethoxy-phenyl)-3-[3-(1-methyl-1H-pyrazol-4-yl)-quinoxalin-6-yl]-propyl}-isopropyl-amine] | <5 | > 10 µM |  | 148 °C | 1 µM | 7.7 | 0.02 µM | 5.01 µM
COc1cc(OC)cc(C2(c3ccc4ncc(-c5cnn(C)c5)nc4c3)CC2)c1 [Compound 30] | <5 | > 10 µM |  | 140 °C | 0.282 µM |  | 0.02 µM | 
COc1cc(OC)cc(C(CCNCC(F)(F)F)c2ccc3ncc(-c4cnn(C)c4)nc3c2)c1.Cl (stereo not shown) [Compound 33] | <5 | > 10 µM |  | 162 °C |  |  |  | 
COc1cc(OC)cc(/C(=C/CN(C)C)c2ccc3ncc(-c4cnn(C)c4)nc3c2)c1 [Compound 34] | <5 | > 10 µM |  | 177 °C |  |  |  | 
CN(C)CCC(c1ccccc1)c1ccc2ncc(-c3cnn(C)c3)nc2c1 (stereo not shown) [Compound 35] | <5 | > 10 µM |  |  |  |  |  | 
COc1cc(OC)cc(C(CCCN)c2ccc3ncc(-c4cnn(C)c4)nc3c2)c1.Cl (stereo not shown) [Compound 40] | <5 | > 10 µM |  | 140 °C |  |  |  | 
